Measurements from US20060166985A1, “Pyrrolydin-2-one derivatives as inhibitors of thrombin and factor xa” (priority 2002, published 2006).
pKi: −log10 of the molar value.

The molecules below were run against human Thrombin (Homo sapiens, UniProt P00734) (assay: In vitro assay for inhibition of Thrombin (chromogenic or fluorogenic assay)). Settings: Example 2 chromogenic assay, other Examples fluorogenic assay, read-out: thrombin inhibitory Ki.
Type: biochemical

Question: `O=C([C@H](c1cccs1)N1CC[C@H](NS(=O)(=O)CCc2ccc(Cl)s2)C1=O)N1CCOCC1` [Example 73, 2-(5-chloro-2-thienyl)-N-{(3S)-1-[(1R)-2-(4-morpholinyl)-2-oxo-1-(2-thienyl)ethyl]-2-oxo-3-pyrrolidinyl}ethanesulfonamide] was tested. Which pKi did it give?
Answer: > 7.30

Question: How did the pKi turn out when `O=C([C@H](c1cccs1)N1CC[C@H](NS(=O)(=O)CCc2ccc(Cl)cc2)C1=O)N1CCOCC1` [Example 74, 2-(4-chlorophenyl)-N-{(3S)-1-[(1R)-2-(4-morpholinyl)-2-oxo-1-(2-thienyl)ethyl]-2-oxo-3-pyrrolidinyl}ethanesulfonamide] was run?
Answer: > 7.00

Question: With `CCSC[C@@H](C(=O)N1CCOCC1)N1CC[C@H](NS(=O)(=O)CCc2ccc(Cl)s2)C1=O` [Example 75, 2-(5-chloro-2-thienyl)-N-{(3S)-1-[(1R)-1-((ethylthio)methyl]-2-(4-morpholinyl)-2-oxoethyl]-2-oxo-3-pyrrolidinyl}ethanesulfonamide] as the molecule, how does the pKi read?
Answer: > 7.30

Question: With `N#CC[C@@H](C(=O)N1CCOCC1)N1CC[C@H](NS(=O)(=O)CCc2ccc(Cl)s2)C1=O` [Example 76, 2-(5-chloro-2-thienyl)-N-{(3S)-1-[(1S)-1-(cyanomethyl)-2-(4-morpholinyl)-2-oxoethyl]-2-oxo-3-pyrrolidinyl}ethanesulfonamide] as the molecule, how does the pKi read?
Answer: > 7.00

Question: `O=C([C@H](Cc1ncno1)N1CC[C@H](NS(=O)(=O)CCc2ccc(Cl)s2)C1=O)N1CCOCC1` [Example 77, 2-(5-chloro-2-thienyl)-N-{(3S)-1-[(1S)-2-(4-morpholinyl)-1-(1,2,4-oxadiazol-5-ylmethyl)-2-oxoethyl]-2-oxo-3-pyrrolidinyl}ethanesulfonamide] was tested. Which pKi did it give?
Answer: > 8.00

Question: With `Cc1noc(C[C@@H](C(=O)N2CCOCC2)N2CC[C@H](NS(=O)(=O)CCc3ccc(Cl)s3)C2=O)n1` [Example 78, 2-(5-chloro-2-thienyl)-N-{(3S)-1-[(1S)-1-[(3-methyl-1,2,4-oxadiazol-5-yl)methyl]-2-(4-morpholinyl)-2-oxoethyl]-2-oxo-3-pyrrolidinyl}ethanesulfonamide] as the molecule, how does the pKi read?
Answer: > 7.60

Question: With `Cc1noc(C[C@@H](C(=O)N2CCOCC2)N2CC[C@H](N(C)S(=O)(=O)CCc3ccc(Cl)s3)C2=O)n1` [Example 79, 2-(5-chloro-2-thienyl)-N-methyl-N-{(3S)-1-[(1S)-1-[(3-methyl-1,2,4-oxadiazol-5-yl)methyl]-2-(4-morpholinyl)-2-oxoethyl]-2-oxo-3-pyrrolidinyl}ethanesulfonamide] as the molecule, how does the pKi read?
Answer: > 7.30

Question: With `Cn1cnc(C[C@@H](C(=O)N2CCOCC2)N2CC[C@H](NS(=O)(=O)CCc3ccc(Cl)s3)C2=O)n1` [Example 80, 2-(5-chloro-2-thienyl)-N-{(3S)-1-[(1S)-1-[(1-methyl-1H-1,2,4-triazol-3-yl)methyl]-2-(4-morpholinyl)-2-oxoethyl]-2-oxo-3-pyrrolidinyl}ethanesulfonamide] as the molecule, how does the pKi read?
Answer: > 7.30

Question: `Cn1ncnc1C[C@@H](C(=O)N1CCOCC1)N1CC[C@H](NS(=O)(=O)CCc2ccc(Cl)s2)C1=O` [Example 81, 2-(5-chloro-2-thienyl)-N-{(3S)-1-[(1S)-1-[(1-methyl-1H-1,2,4-triazol-5-yl)methyl]-2-(4-morpholinyl)-2-oxoethyl]-2-oxo-3-pyrrolidinyl}ethanesulfonamide] was tested. Which pKi did it give?
Answer: > 7.00

Question: With `Cc1noc(C[C@@H](C(=O)N2CCOCC2)N2CC[C@H](NS(=O)(=O)CCc3ccc(Cl)cc3)C2=O)n1` [Example 82, 2-(4-chlorophenyl)-N-{(3S)-1-[(1S)-1-[(3-methyl-1,2,4-oxadiazol-5-yl)methyl]-2-(4-morpholinyl)-2-oxoethyl]-2-oxo-3-pyrrolidinyl}ethanesulfonamide] as the molecule, how does the pKi read?
Answer: > 7.00

Question: With `CN(Cc1ccccc1)C(=O)C[C@@H](C(=O)N1CCOCC1)N1CC[C@H](NS(=O)(=O)CCc2ccc(Cl)s2)C1=O` [Example 83, (3S)-3-[(3S)-3-({[2-(5-chloro-2-thienyl)ethyl]sulfonyl)amino)-2-oxo-1-pyrrolidinyl]-N-methyl-4-(4-morpholinyl)-4-oxo-N-(phenylmethyl)butanamide] as the molecule, how does the pKi read?
Answer: > 7.30

Question: How did the pKi turn out when `CC(C)OC[C@@H](C(=O)N1CCOCC1)N1CC[C@H](NS(=O)(=O)CCc2ccc(Cl)s2)C1=O` [Example 84, 2-(5-chloro-2-thienyl)-N-{(3S)-1-[(1S)-1-{[(1-methylethyl)oxy]methyl}-2-(4-morpholinyl)-2-oxoethyl]-2-oxo-3-pyrrolidinyl}ethanesulfonamide] was run?
Answer: > 8.00

Question: `CCOC[C@@H](C(=O)N1CCOCC1)N1CC[C@H](NS(=O)(=O)CCc2ccc(Cl)s2)C1=O` [Example 85, 2-(5-chloro-2-thienyl)-N-{(3S)-1-[(1S)-1-[(ethyloxy)methyl]-2-(4-morpholinyl)-2-oxoethyl]-2-oxo-3-pyrrolidinyl}ethanesulfonamide] was tested. Which pKi did it give?
Answer: > 8.00

Question: `CCOC[C@@H](C(=O)N1CCOCC1)N1CC[C@H](NS(=O)(=O)CCc2ccc(Cl)cc2)C1=O` [Example 86, 2-(4-chlorophenyl)-N-((3S)-1-[(1S)-1-[(ethyloxy)methyl]-2-(4-morpholinyl)-2-oxoethyl]-2-oxo-3-pyrrolidinyl}ethanesulfonamide] was tested. Which pKi did it give?
Answer: > 7.60

Question: With `CCOC[C@@H](C(=O)N1CCOCC1)N1CC[C@H](NS(=O)(=O)/C=C(\C)c2ccc(Cl)s2)C1=O` [Example 87, (1E)-2-(5-chloro-2-thienyl)-N-{(3S)-1-[(1S)-1-[(ethyloxy)methyl]-2-(4-morpholinyl)-2-oxoethyl]-2-oxo-3-pyrrolidinyl}-1-propene-1-sulfonamide] as the molecule, how does the pKi read?
Answer: > 8.00

Question: How did the pKi turn out when `COCC[C@@H](C(=O)N1CCOCC1)N1CC[C@H](NS(=O)(=O)CCc2ccc(Cl)s2)C1=O` [Example 88] was run?
Answer: > 7.60

Question: `COC[C@@H](C(=O)N1CCOCC1)N1CC[C@H](NS(=O)(=O)CCc2ccc(Cl)cc2)C1=O` [Example 89, 2-(4-chlorophenyl)-N-{(3S)-1-[(1S)-1-[(methyloxy)methyl]-2-(4-morpholinyl)-2-oxoethyl]-2-oxo-3-pyrrolidinyl}ethanesulfonamide] was tested. Which pKi did it give?
Answer: > 7.30

Question: How did the pKi turn out when `O=C([C@H](Cc1ccncc1)N1CC[C@H](NS(=O)(=O)CCc2ccc(Cl)s2)C1=O)N1CCOCC1` [Example 90, 2-(5-chloro-2-thienyl)-N-{(3S)-1-[(1S)-2-(4-morpholinyl)-2-oxo-1-(4-pyridinylmethyl)ethyl]-2-oxo-3-pyrrolidinyl}ethanesulfonamide] was run?
Answer: > 7.30

Question: How did the pKi turn out when `O=C([C@H](Cc1cccnc1)N1CC[C@H](NS(=O)(=O)CCc2ccc(Cl)s2)C1=O)N1CCOCC1` [Example 91, 2-(5-chloro-2-thienyl)-N-{(3S)-1-[(1S)-2-(4-morpholinyl)-2-oxo-1-(3-pyridinylmethyl)ethyl]-2-oxo-3-pyrrolidinyl}ethanesulfonamide] was run?
Answer: > 8.00

Question: With `CN(C)CC[C@@H](C(=O)N1CCOCC1)N1CC[C@H](NS(=O)(=O)CCc2ccc(Cl)s2)C1=O` [Example 93, 2-(5-chloro-2-thienyl)-N-{(3S)-1-[(1S)-3-(dimethylamino)-1-(4-morpholinylcarbonyl)propyl]-2-oxo-3-pyrrolidinyl}ethanesulfonamide] as the molecule, how does the pKi read?
Answer: > 7.00

Question: How did the pKi turn out when `O=C([C@H](CCN1CCCCC1)N1CC[C@H](NS(=O)(=O)CCc2ccc(Cl)s2)C1=O)N1CCOCC1` [Example 94, 2-(5-chloro-2-thienyl)-N-{(3S)-1-[(1S)-1-(4-morpholinylcarbonyl)-3-(1-piperidinyl)propyl]-2-oxo-3-pyrrolidinyl}ethanesulfonamide] was run?
Answer: > 7.00

Question: How did the pKi turn out when `O=C([C@H](CCN1CCOCC1)N1CC[C@H](NS(=O)(=O)CCc2ccc(Cl)s2)C1=O)N1CCOCC1` [Example 95, 2-(5-chloro-2-thienyl)-N-{(3S)-1-[(1S)-3-(4-morpholinyl)-1-(4-morpholinylcarbonyl)propyl]-2-oxo-3-pyrrolidinyl}ethanesulfonamide] was run?
Answer: > 7.00

Question: How did the pKi turn out when `C/C(=C\S(=O)(=O)N[C@H]1CCN([C@@H](CCN2CCOCC2)C(=O)N2CCOCC2)C1=O)c1ccc(Cl)s1` [Example 96, (1E)-2-(5-chloro-2-thienyl)-N-{(3S)-1-[(1S)-3-(4-morpholinyl)-1-(4-morpholinylcarbonyl)propyl]-2-oxo-3-pyrrolidinyl}-1-propene-1-sulfonamide] was run?
Answer: > 7.30

Question: How did the pKi turn out when `COC[C@@H](C(=O)N1CCOCC1)N1CC[C@H](N(CC(=O)N(C)C)S(=O)(=O)CCc2ccc(Cl)s2)C1=O` [Example 97, N^2-{[2-(5-chloro-2-thienyl)ethyl]sulfonyl}-N^1,N^1-dimethyl-N^2-{(3S)-1-[(1S)-1-[(methyloxy)methyl]-2-(4-morpholinyl)-2-oxoethyl]-2-oxo-3-pyrrolidinyl}glycinamide] was run?
Answer: > 7.30

Question: How did the pKi turn out when `CNC(=O)CN([C@H]1CCN([C@@H](COC)C(=O)N2CCOCC2)C1=O)S(=O)(=O)CCc1ccc(Cl)s1` [Example 98, N^2-{(2-(5-chloro-2-thienyl)ethyl]sulfonyl}-N^1-methyl-N^2-{(3S)-1-[(1S)-1-[(methyloxy)methyl]-2-(4-morpholinyl)-2-oxoethyl]-2-oxo-3-pyrrolidinyl}glycinamide] was run?
Answer: > 8.00

Question: How did the pKi turn out when `CS(=O)(=O)CC[C@@H](C(=O)N1CCOCC1)N1CC[C@H](NS(=O)(=O)CCc2ccc(Cl)cc2)C1=O` [Example 99, 2-(4-chlorophenyl)-N-{(3S)-1-[(1S)-3-(methylsulfonyl)-1-(4-morpholinylcarbonyl)propyl]-2-oxo-3-pyrrolidinyl}ethanesulfonamide] was run?
Answer: > 6.70
